Molecules are shown by their SMILES.

Broadly, the GI50 is the concentration at which growth is held to half of that of the control. What is called inhibition in vivo is the percentage by which the read-out fell short of the control.

Series [1] concerns the target NAD(P)H dehydrogenase [quinone] 1 (Homo sapiens) (UniProt P15559). The series can be described thus: Substrate activity at recombinant human C-terminal His-tagged NQO1 (1 to 274 residues) expressed in Escherichia coli assessed as enzyme activity by measuring oxidation of NADPH incubated for 5 mins measured per micromol of enzyme every 5 sec for 1 mins by UV-visible spectrophotometry.

In another series the test system is MCF7. As to the kind of experiment: Cytotoxicity against NQO1-rich human MCF7 cells assessed as reduction in cell growth incubated for 48 hrs by MTT assay. Type of series: functional. (In general: Tetrazolium dyes change colour on reduction, which living cells bring about.)
For series [2], the system named is HepG2. The series can be described thus: Cytotoxicity against human HepG2 cells assessed as reduction in cell growth incubated for 48 hrs by MTT assay. In kind it is functional.
Series [3] relates to A549. The series can be described thus: Cytotoxicity against human A549 cells assessed as reduction in cell growth incubated for 48 hrs by MTT assay. In kind it is functional.
A short description of series [4]: Selectivity index, ratio of GI50 for human A549 cells pretreated for 1 hr with NQO1 inhibitor, dicoumarol followed by incubation with compound for 48 hrs to GI50 for human A549 cells measured after 48 hrs by MTT assay. In kind it is functional.
Series [5] deals with HepG2. The series can be described thus: Cytotoxicity against human HepG2 cells assessed as reduction in cell growth pretreated for 1 hr with NQO1 inhibitor, dicoumarol followed by incubation with compound for 48 hrs by MTT assay. In kind it is functional.
In series [6] the test system is A549. As to the kind of experiment: Cytotoxicity against human A549 cells assessed as reduction in cell growth pretreated for 1 hr with NQO1 inhibitor, dicoumarol followed by incubation with compound for 48 hrs by MTT assay. In kind it is functional.
In series [7] the test system is HepG2. The series can be described thus: Cytotoxicity against human HepG2 cells assessed as reduction in cell growth pretreated for 1 hr with ROS scavenger, N-acetyl cysteine followed by incubation with compound for 48 hrs by MTT assay. Type of series: functional.
Series [8] relates to A549. The series can be described thus: Cytotoxicity against human A549 cells assessed as reduction in cell growth pretreated for 1 hr with ROS scavenger, N-acetyl cysteine followed by incubation with compound for 48 hrs by MTT assay. Type of series: functional.
Series [9] can be described thus: Cytotoxicity against human L02 cells assessed as reduction in cell growth incubated for 48 hrs by MTT assay. In kind it is cell-based.
In series [10] the test system is HepG2. The series can be described thus: Induction of ROS generation in human HepG2 cells at 5 uM by DCFH-DA staining based flow cytometry analysis. Type of series: functional, cell-based. To be noted: time 3-5 hrs, TDE = time-dependent effect. A general note: In flow cytometry, cells or beads pass a laser one at a time.
The subject of series [11] is HepG2. The series can be described thus: Antitumor activity against human HepG2 cells xenografted in athymic nude mouse assessed as inhibition of tumor growth at 20 mg/kg, iv administered once every 2 days for 19 days by caliper analysis relative to control. In kind it is functional. To be noted: 456 h, time 19 day. (In general: In xenograft studies the graft and the host belong to different species.)

A short description of series [12]: Selectivity index, ratio of GI50 for human HepG2 cells pretreated for 1 hr with NQO1 inhibitor, dicoumarol followed by incubation with compound for 48 hrs to GI50 for human HepG2 cells measured after 48 hrs by MTT assay. In kind it is functional.
Series [13] is described as follows: Selectivity index, ratio of GI50 for human HepG2 cells pretreated for 1 hr with ROS scavenger, N-acetyl cysteine followed by incubation with compound for 48 hrs to GI50 for human HepG2 cells measured after 48 hrs by MTT assay. In kind it is functional.
Series [14] can be described thus: Selectivity index, ratio of GI50 for human A549 cells pretreated for 1 hr with ROS scavenger, N-acetyl cysteine followed by incubation with compound for 48 hrs to GI50 for human A549 cells measured after 48 hrs by MTT assay. Type of series: functional.

Turning to `O=C1CC(c2c(F)cccc2F)C2=C(N1)c1ccccc1C(=O)C2=O` (stereo not drawn), the Activity in [1] was determined as 160 µmol/min. The same measure, in the same setting: with `COc1cccc(C2CC(=O)NC3=C2C(=O)C(=O)c2ccccc23)c1` (stereo not drawn) the figure was 586 µmol/min.

For `O=C1CC(c2cccc(O)c2)C2=C(N1)c1ccccc1C(=O)C2=O` (stereo not drawn), the Activity in [1] came out at 509 µmol/min. Still for that read-out and setting: with `COc1ccc(OC)c(C2CC(=O)NC3=C2C(=O)C(=O)c2ccccc23)c1` (stereo not drawn) the figure was 180 µmol/min. Take `COc1cc(OC)cc(C2CC(=O)NC3=C2C(=O)C(=O)c2ccccc23)c1` (stereo not drawn): the Activity in series [1] stood at 194 µmol/min. As for `Cc1ccccc1C1CC(=O)NC2=C1C(=O)C(=O)c1ccccc12` (stereo not drawn), in [1], the Activity turned out to be 448 µmol/min. On to `O=C1CC(C2CCCC2)C2=C(N1)c1ccccc1C(=O)C2=O` (stereo not drawn), for which the Activity in series [1] was 491 µmol/min.

In the case of `O=C1CC(c2ccc(F)cc2)C2=C(N1)c1ccccc1C(=O)C2=O` (stereo not drawn), the Activity in [1] was 392 µmol/min. Turning to `COc1cc(C2CC(=O)NC3=C2C(=O)C(=O)c2ccccc23)ccc1O` (stereo not drawn), the Activity in series [1] was 1440 µmol/min. In addition, the figures for the GI50 with MCF7, in the series on HepG2 [2] and in the series on A549 [3] were 1.89 µM, 2.24 µM and 4.38 µM, respectively. Regarding `CC1(C)CCC2=C(O1)c1ccccc1C(=O)C2=O` [LAPACHONE], the RatioGI50 in series [4], in series [12], in series [13] and in [14] was 2 in each case. Moreover, the GI50 turned out to be 4.17 µM with MCF7; 2.83 µM in the series with HepG2 [2]; 3.32 µM in the series with A549 [3]; 6.3 µM in the series on HepG2 [5]; 6 µM in the series with A549 [6]; 6.21 µM in the series on HepG2 [7]. Further, in the series with A549 [8], the GI50 came to 6.19 µM. In series [9], the GI50 at 48 h was found to be 4.54 µM. Moreover, in the series with HepG2 [10], the Activity result is “Tde”. For the same molecule, the inhibition in vivo at 20 mg/kg in the series with HepG2 [11] amounted to 67.3%. Consider `O=C1CC(c2ccc([N+](=O)[O-])cc2)C2=C(N1)c1ccccc1C(=O)C2=O` (stereo not drawn), for which, in series [1], the Activity stood at 182 µmol/min. Still for that read-out and setting: with `COc1ccccc1C1CC(=O)NC2=C1C(=O)C(=O)c1ccccc12` (stereo not drawn) the figure was 354 µmol/min. For `O=C1CC(c2ccco2)C2=C(N1)c1ccccc1C(=O)C2=O` (stereo not drawn), in series [1], the Activity was determined as 613 µmol/min. As to `O=C1CC(c2cccc(C(F)(F)F)c2)C2=C(N1)c1ccccc1C(=O)C2=O` (stereo not drawn), in series [1], the Activity stood at 1030 µmol/min. Also, the GI50 is 8.96 µM with MCF7, 4.24 µM in the series with HepG2 [2] and 12.6 µM in the series on A549 [3]. On to `O=C1CC(c2ccc(F)cc2F)C2=C(N1)c1ccccc1C(=O)C2=O` (stereo not drawn), for which the Activity in series [1] came out at 936 µmol/min. As for `Cc1cccc(C2CC(=O)NC3=C2C(=O)C(=O)c2ccccc23)c1` (stereo not drawn), in [1], the Activity was determined as 333 µmol/min. The same measure, in the same setting: with `O=C1CC(c2ccc(Cl)cc2)C2=C(N1)c1ccccc1C(=O)C2=O` (stereo not drawn) the figure was 557 µmol/min; with `CCCCCC1CC(=O)NC2=C1C(=O)C(=O)c1ccccc12` (stereo not drawn), 175 µmol/min; with `O=C1CC(c2ccccc2Cl)C2=C(N1)c1ccccc1C(=O)C2=O` (stereo not drawn), 467 µmol/min.

Turning to `CCCC1CC(=O)NC2=C1C(=O)C(=O)c1ccccc12` (stereo not drawn), the Activity in series [1] was 486 µmol/min.

Consider `CC(C)C1CC(=O)NC2=C1C(=O)C(=O)c1ccccc12` (stereo not drawn), for which the Activity in [1] came to 786 µmol/min. For the molecule `Cc1ccc(C2CC(=O)NC3=C2C(=O)C(=O)c2ccccc23)cc1` (stereo not drawn), the Activity in [1] worked out at 275 µmol/min.

In the case of `COc1cc(C2CC(=O)NC3=C2C(=O)C(=O)c2ccccc23)cc(OC)c1OC` (stereo not drawn), the Activity in series [1] turned out to be 684 µmol/min. On the same count and under the same terms, with `O=C1CC(C2CCCCC2)C2=C(N1)c1ccccc1C(=O)C2=O` (stereo not drawn) the figure was 283 µmol/min; with `COc1ccc(C2CC(=O)NC3=C2C(=O)C(=O)c2ccccc23)cc1F` (stereo not drawn), 192 µmol/min. As for `O=C1CC(c2ccccc2F)C2=C(N1)c1ccccc1C(=O)C2=O` (stereo not drawn), in series [1], the Activity is 1360 µmol/min. The GI50 was found to be 2.3 µM in the series on MCF7, 2.57 µM in the series with HepG2 [2] and 3.89 µM in the series with A549 [3]. Turning to `O=C1CC(c2cccs2)C2=C(N1)c1ccccc1C(=O)C2=O` (stereo not drawn), the Activity in [1] came to 621 µmol/min. `O=C1CC(c2ccccc2)C2=C(N1)c1ccccc1C(=O)C2=O` (stereo not drawn): the Activity in series [1] was determined as 364 µmol/min. Moreover, the GI50 with MCF7 came to 15.3 µM; in the series with HepG2 [2], 3.09 µM; in the series on A549 [3] it was 11.7 µM.

Regarding `O=C1CC(c2cc([N+](=O)[O-])ccc2Cl)C2=C(N1)c1ccccc1C(=O)C2=O` (stereo not drawn), in [1], the Activity was 195 µmol/min. `O=C1CC(c2ccc(Cl)cc2Cl)C2=C(N1)c1ccccc1C(=O)C2=O` (stereo not drawn): in series [1], the Activity worked out at 760 µmol/min. Besides, the results for the 50% growth inhibitory concentration (GI50) in the series on MCF7, in the series with HepG2 [2] and with A549 [3] were 8.81 µM, 3.27 µM and 3.13 µM, respectively.

The values above are taken from ChEMBL document CHEMBL4765339, “Design, synthesis, and biological evaluation of 4-substituted-3,4-dihydrobenzo[h]quinoline-2,5,6(1H)-triones as NQO1-directed antitumor agents” (Eur J Med Chem, 2020).
